Here are results for 26 compounds from patent US8779144B2, “Bicycloheteroaryl compounds as P2X7 modulators and uses thereof” (Evotec (US) Inc., priority 2006, dated 2014).

Structures are written as SMILES.

Data set [1] can be described thus: Half-life in human liver microsomes (HLM). Format: in vitro ADME. The conditions noted are these: 1 μM compound, 0.78 mg/mL HLM, NADPH, pH 7.4, 37° C. A general note: Liver microsomes are vesicles of endoplasmic reticulum, rich in cytochrome P450 enzymes.
Protocol: Test compounds (1 μM) are incubated with 3.3 mM MgCl2 and 0.78 mg/mL HLM (HL101) in 100 mM potassium phosphate buffer (pH 7.4) at 37° C. on the 96-deep well plate. The reaction mixture is split into two groups, a non-P450 and a P450 group. NADPH is only added to the reaction mixture of the P450 group. An aliquot of samples of P450 group is collected at 0, 10, 30, and 60 min time point, where 0 min time point indicated the time when NADPH is added into the reaction mixture of P450 group. An aliquot of samples of non-P450 group is collected at −10 and 65 min time point. Collected aliquots are extracted with acetonitrile solution containing an internal standard. The precipitated protein is spun down in centrifuge (2000 rpm, 15 min). The compound concentration in supernatant is measured by LC/MS/MS system.
The half-life value is obtained by plotting the natural logarithm of the peak area ratio of compounds/internal standard versus time. The slope of the line of best fit through the points yields the rate of metabolism (k). This is converted to a half-life value using following equations: Half-life=ln 2/k
In data set [2] the test system is IL-1β release from THP-1 cells. Nature of the data set: IL-1β release assay in differentiated THP-1 cells stimulated with BzATP (ELISA). Format: cell-based. The conditions noted are these: Homo sapiens; for inhibition at 0.3 µM: 0.3 uM compound, BzATP 250 uM, read-out: IL-1β % Inhib. @ 0.3 uM.; for IC50: released IL-1β as in Example 9, four parameter logistic fit, read-out: IL-Iβ IC50. As to the method: THP-1 cells (ATCC Cat #285-IF-100) are plated in 96 well plates at a concentration of 200,000 cells per well and allowed to differentiate in RPMI-1640 media (ATCC Cat #30-2001) containing 10% FBS, 100 IU/mL penicillin, 100 ug/mL streptomycin, 100 ng/mL LPS and 100 ng/mL IFN-γ for 16 hours. Following differentiation, the cells are treated for an additional 2 hours in RPMI-1640 media containing 100 IU/mL penicillin, 100 ug/mL streptomycin and fresh LPS at 100 ng/mL. The cells are then pretreated for 30 minutes with the compound of interest at the appropriate concentration in RPMI media containing 100 IU/mL penicillin, 100 ug/mL streptomycin. Following the pretreatment 2′,3′-O-(4-benzoylbenzoyl)-adenosine 5′-triphosphate (Sigma Aldrich Cat # B6396) is added to a final concentration of 250 uM and the cells are incubated for an additional 45 minutes. 30 uL of cell supernatant is then collected and IL-113 levels determined via ELISA (R&D systems Cat. # HSLB50) according to manufacturer's recommendations using the Tecan Safire plate reader. Background adjusted IL-1β levels of drug treated and non-treated cells are used to calculate the percent inhibition. […]
The compounds set forth in Table 1 were tested for activity in a cellular model as described herein. Specifically, cells were pretreated with differing amounts of the compound under test and released IL-1β determined as in Example 9, above. Measurements were made and IC50 values, presented in Table 2, below, were determined by fitting the data to a four parameter logistic equation using GraphPad Prism software (GraphPad Software, Inc). The equation may be expressed by the following formula: Y=Bottom+(Top−Bottom)/(1+10^((LogEC50−X)*HillSlope)) Where X is the logarithm of concentration, Y is the response and Y starts at Bottom and goes to Top with a sigmoid shape.

Broadly, the half-life is the time in which the quantity being followed falls by half. A lower half-life goes with rapid decline. For orientation: IC50 means the concentration that gives 50% inhibition. In data set [1], `O=C(NCC12CC3CC(CC(C3)C1)C2)c1cccc2c(=O)[nH]ccc12` [Compound 2028, 1-Oxo-1,2-dihydro-isoquinoline-5-carboxylic acid (adamantan-1-ylmethyl)-amide] showed a half-life at 1 μM of 18.6 min. In data set [2], the inhibition at 0.3 µM was over 76% and the IC50 worked out at 0.73 nM.
Taken in the same sequence, the figures for `O=C(NCC1(O)CCCCCC1)c1cccc2c(=O)[nH]ccc12` [Compound 2030] were 23.4 min, 51 to 75% and 79 nM.
For `Cn1ccc2c(C(=O)NCC3(O)CCCCCC3)cccc2c1=O` [Compound 2032], the half-life at 1 μM in data set [1] is 22.8 min. In data set [2], the inhibition at 0.3 µM was over 76% and the IC50 was found to be 48.6 nM.
As for `O=C(NCC1(O)CCCCCC1)c1cccc2c(=O)n(Cc3ccc4c(c3)OCCO4)ccc12` [Compound 2033, 2-(2,3-Dihydro-benzo[1,4]dioxin-6-ylmethyl)-1-oxo-1,2-dihydro-isoquinoline-5-carboxylic acid (1-hydroxy-cycloheptylmethyl)-amide], in data set [1], the half-life at 1 μM is 13.8 min. Besides, in data set [2], the inhibition at 0.3 µM was over 76% and the IC50 stood at 1.37 nM.
In the case of `O=C(NCC1(O)CCCCCC1)c1cccc2c(=O)n(CC3CCOCC3)ccc12` [Compound 2034], in data set [1], the half-life at 1 μM is 15.6 min. In data set [2], the inhibition at 0.3 µM lay in the range of 51 to 75% and the IC50 stood at 133 nM.
As to `CC(C)C(CO)n1ccc2c(C(=O)NCC3(O)CCCCCC3)cccc2c1=O` (stereo not drawn) [Compound 2035, 2-(1-Hydroxymethyl-2-methyl-propyl)-1-oxo-1,2-dihydro-isoquinoline-5-carboxylic acid (1-hydroxy-cycloheptylmethyl)-amide], the half-life at 1 μM in data set [1] is 38.4 min. In addition, in data set [2], the inhibition at 0.3 µM is over 76% and the IC50 was 5.66 nM.
Taken in the same sequence, the figures for `O=C(NCC1CCCCCC1)c1cccc2c(=O)n(C(CO)CO)ccc12` [Compound 2040] were 51 min, over 76% and 39.2 nM.
The like results for `O=C(NCC1CCCCCC1)c1cccc2c(=O)n(CCO)ccc12` [Compound 2041, 2-(2-Hydroxy-ethyl)-1-oxo-1,2-dihydro-isoquinoline-5-carboxylic acid cycloheptylmethyl-amide] were, in that order, 18 min, over 76% and 54 nM.
In data set [1], `CC1(C)CCCC(O)(CNC(=O)c2cccc3c(=O)n(C(CO)CO)ccc23)C1` (stereo not drawn) [Compound 2043] showed a half-life at 1 μM of 38.4 min. In data set [2], the inhibition at 0.3 µM was over 76% and the IC50 came out at 23 nM.
The like results for `O=C(NCC1(O)CCCCCC1)c1cccc2c(=O)n(C(CO)CO)ccc12` [Compound 2047] were, in that order, 31.8 min, 26 to 50% and 573 nM.
As to `O=C(NCC1(O)CCCCCC1)c1cccc2c(=O)n(CCO)ccc12` [Compound 2048, 2-(2-Hydroxy-ethyl)-1-oxo-1,2-dihydro-isoquinoline-5-carboxylic acid (1-hydroxy-cycloheptylmethyl)-amide], in data set [1], the half-life at 1 μM is 42.6 min. Moreover, in data set [2], the inhibition at 0.3 µM lay in the range of 26 to 50% and the IC50 came to 326 nM.
Taken in the same sequence, the figures for `C[C@H](C(N)=O)n1ccc2c(C(=O)NCC3CCCCCC3)cccc2c1=O` [Compound 2062] were 36 min, over 76% and 7.46 nM.
Turning to `C[C@@H](C(N)=O)n1ccc2c(C(=O)NCC3CCCCCC3)cccc2c1=O` [Compound 2063], the half-life at 1 μM in data set [1] was 66 min. In data set [2], the inhibition at 0.3 µM was over 76% and the IC50 was 17.3 nM.
The like results for `C[C@H](C(N)=O)n1ccc2c(C(=O)NCC34CC5CC(CC(C5)C3)C4)cccc2c1=O` [Compound 2064, 2-((R)-1-Carbamoyl-ethyl)-1-oxo-1,2-dihydro-isoquinoline-5-carboxylic acid (adamantan-1-ylmethyl)-amide] were, in that order, 19.2 min, over 76% and 0.15 nM.
Regarding `O=C(NCC1CCCCCC1)c1cccc2c(=O)n(C3CC3)ccc12` [Compound 2070, 2-Cyclopropyl-1-oxo-1,2-dihydro-isoquinoline-5-carboxylic acid cycloheptylmethyl-amide], in data set [2], the inhibition at 0.3 µM is over 76% and the IC50 turned out to be 16.5 nM.
Take `O=C(NCc1ccc(C(F)(F)F)cc1)c1cccc2c(=O)n(C3CC3)ccc12` [Compound 2071]: in data set [2], the inhibition at 0.3 µM is 0 to 25% and the 50% inhibitory concentration (IC50) was determined as 754 nM.
Taken in the same sequence, the figures for `O=C(NCc1ccc(Cl)c(Cl)c1)c1cccc2c(=O)n(C3CC3)ccc12` [Compound 2072, 2-Cyclopropyl-1-oxo-1,2-dihydro-isoquinoline-5-carboxylic acid 3,4-dichloro-benzylamide] were over 76% and 59.2 nM.
For `O=C(NCc1ccc(F)c(Cl)c1)c1cccc2c(=O)n(C3CC3)ccc12` [Compound 2073], in data set [2], the inhibition at 0.3 µM was over 76% and the IC50 is 152 nM.
The like results for `O=C(NCc1ccc(Cl)c(F)c1)c1cccc2c(=O)n(C3CC3)ccc12` [Compound 2074] were, in that order, over 76% and 107 nM.
Taken in the same sequence, the figures for `O=C(NCc1ccc(F)c(C(F)(F)F)c1)c1cccc2c(=O)n(C3CC3)ccc12` [Compound 2075] were over 76% and 158 nM.
The like results for `O=C(NCc1ccc(C(F)(F)F)c(F)c1)c1cccc2c(=O)n(C3CC3)ccc12` [Compound 2076] were, in that order, over 76% and 119 nM.
Turning to `O=C(NCc1cccc(C(F)(F)F)c1F)c1cccc2c(=O)n(C3CC3)ccc12` [Compound 2077], in data set [2], the inhibition at 0.3 µM lay within 51 to 75% and the IC50 came to 162 nM.
The like results for `O=C(NCc1ccc(Cl)c(C(F)(F)F)c1)c1cccc2c(=O)n(C3CC3)ccc12` [Compound 2078] were, in that order, over 76% and 59.4 nM.
Taken in the same sequence, the figures for `Cc1ccc2c(c1C(=O)NCc1ccc(C(F)(F)F)c(F)c1)CCN(C(=O)C1CC1)C2` [Compound 2080] were 26 to 50% and 356 nM.
Turning to `Cc1ccc2c(c1C(=O)NCc1ccc(C(F)(F)F)c(F)c1)CCN(C(=O)C1CCC1)C2` [Compound 2081], in data set [2], the inhibition at 0.3 µM is over 76% and the IC50 turned out to be 149 nM.
Taken in the same sequence, the figures for `Cc1ccc2c(c1C(=O)NCc1ccc(C(F)(F)F)c(F)c1)CCN(C(=O)C1(C)CC1)C2` [Compound 2082] were 0 to 25% and 667 nM.
